According to PubChem BioAssay (NCI):
Where “and” joins values, the source holds several entries; their conditions need not be identical. Equal entries are not always repeated.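 Cultured in 96-well plates, cells were exposed to test compound for 48 hours across five concentrations. At the GI50, growth is halved. TGI: total growth inhibition.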 *1 amine or outer side, *2 acyl side, *3 side chain or, on linkers, in order; H or OH if unused. Where a SMILES comes first, the peptide text is derived from it. Bridges are numbered along the chain shown (N, C = ends). [ ]: non-standard residue; d: D form. The star is where a group is joined. Phe(3-Me) = Cc1cccc(C[C@H](N)C(=O)O)c1; NH(4-Cl-2-F-phenyl) = Fc1cc(Cl)ccc1N*; Pro(4R-Me) = C[C@H]1CN[C@H](C(=O)O)C1; Propanoyl(3-NMe2) = CN(C)CCC(=O)*; Hyp = O=C(O)[C@@H]1C[C@@H](O)CN1; aThr = C[C@H](O)[C@H](N)C(=O)O; Pip = O=C(O)[C@@H]1CCCCN1; CO = O=C([*:1])[*:2]

Tested on: MDA-MB-468 breast
Assay: NCI tumour cell line growth inhibition, 48 h

Row | SMILES | GI50 | TGI
1 | O=C1c2cccnc2C(=O)c2c1c(C(=O)OCCN1CCOCC1)c1ccccn21 | 1.51 µM | 6.74 µM
2 | O=C(CN1CCN(c2ccc(Cl)cc2)CC1)N1CCN(c2nnc(-c3ccccc3)c(-c3ccccc3)n2)CC1 | 1.83 µM | 53.3 µM
3 | CC(=O)Nc1sc2c(c1-c1nc3ccccc3s1)CNC2 | 1.88 µM | 7.24 µM
4 | COc1ccc(-c2nc(C(Cl)Cl)nc3cc(-c4ccccc4)nn23)cc1 | 1.09 µM | 3.1 µM
5 | CC(C)[C@@H]1CC[C@@H]2[C@@H]1[C@H](OC(=O)/C=C/c1ccccc1)[C@]1(C(C)C)C[C@@H](OC(=O)CO)[C@@]2(C)O1 | 6.07 µM | 12.6 µM
6 | CN1CCCN(C(c2ccccc2)c2ccc(Br)cc2)CC1 (configuration not stated) | 1.93 µM | 6.53 µM
7 | COc1cc2c3c(c4c5ccccc5[nH]c4c2c(OC)c1OC)C(=O)N(CCN1CCCCC1)C3=O | 1.6 µM | 19.2 µM
8 | CC[C@]12CCCN3CC[C@]4(C(=C(C(=O)OC)C1)Nc1ccccc14)[C@@H]32 | 11.7 µM | 28 µM
9 | O=C(Nc1ccc(Br)cc1F)c1cc(Br)ccc1O | 0.873 µM | 5.42 µM
10 | COc1cc(NC(N)=NCCC(C)(C)c2ccc(C(F)(F)F)cc2)ncc1C#N | 1.24 µM | 2.8 µM
11 | COc1cc(C2C(C#N)=C(N)Oc3cc(O)ccc32)cc(OC)c1OC (configuration not stated) | 0.28 µM | 1.14 µM
12 | COc1ccc(Nc2ncccc2C(=O)NCc2cn(Cc3cccc(Oc4ccccc4)c3)nn2)cc1 | 2.32 µM | 6.95 µM
13 | COc1ccc(-c2nocc2-c2cc(OC)c(OC)c(OC)c2)cc1 | 0.105 µM | 18.6 µM
14 | N=c1ccn2c(n1)O[C@@H]1[C@@H](O)[C@H](CO)O[C@@H]12 | 48.4 µM | > 100 µM
15 | COc1ccc(/C=C/C(=O)c2ccc(Nc3ccnc4cc(Cl)ccc34)cc2)cc1 | > 100 µM | > 100 µM
16 | CC1Cc2cc(O)ccc2C2[C@@H]1C1CC[C@H](O)[C@@]1(C)C[C@@H]2O[N+](=O)[O-] (some centres not stated) | 27.6 µM | > 100 µM
17 | CCOC(=O)Nc1cccc(-n2cnc3cc(-c4ccc(O)cc4)ccc32)c1 | 0.243 µM | 10.6 µM
18 | O=C(CCl)Nc1ccc2c(c1)C(=O)c1ccc(NC(=O)CCl)cc1C2=O | 0.425 µM | 1.55 µM
19 | COc1cc2c3c(n(CCCN4CCCC4)c(=O)c2cc1OC)-c1cc2c(cc1C3=O)OCO2 | 1.57 µM | 3.17 µM
20 | CCN1CCN(C(=O)[C@]23CCC(C)(C)C[C@@H]2C2=CC[C@@H]4[C@@]5(C)C/C(=C/c6cccnc6)C(=O)C(C)(C)[C@@H]5CC[C@@]4(C)[C@]2(C)CC3)CC1 | 1.28 µM | 3.94 µM
21 | C=C1N(C)c2ccc(Cl)cc2C1(C)C | 2.64 µM | 15.6 µM

Row | SMILES | GI50 | TGI
22 | CC(C)Oc1ccc(C(=O)N[C@H](CNC(=O)CN(C)C)Cc2ccc(-c3cn4cccc([C@H](C)O)c4n3)cc2)cc1Cl | 0.0389 µM | 17.5 µM
23 | Cc1ccc(NC(=O)c2nc(S(C)=O)oc2-c2ccc(F)cc2)cc1Nc1nccc(-c2cccnc2)n1 (configuration not stated) | 2.14 µM | 4.65 µM
24 | Cc1cccc(C[C@H](NC(=O)Nc2ccc(Cl)cc2F)C(=O)N[C@@H]2C(=O)N3C[C@H](OC(=O)CCN(C)C)C[C@H]3C(=O)N3CCCC[C@H]3C(=O)N[C@@H](C)C(=O)N3C[C@H](C)C[C@H]3C(=O)O[C@H]2C)c1 ({NH(4-Cl-2-F-phenyl)-CO}-[Phe(3-Me)][aThr][Hyp](Propanoyl(3-NMe2))[Pip]A[Pro(4R-Me)]; ester 2-C) | 0.255 µM | 0.894 µM
25 | COc1ccc(Cn2c(Br)c3c(c2-c2cc(OC)c(OC)c(OC)c2)CCc2sc(NC(C)=O)nc2-3)cc1 | 4.86 µM | 46.3 µM
26 | COc1cc(OC)cc(-c2cncn2-c2ccc(-c3nc4cc(OC)c(OC)c(OC)c4s3)cc2)c1 | 10.7 µM | > 100 µM
27 | C[C@@]1(N2C(=O)OC[C@@H]2c2ccccc2)C(=O)N([C@H](CC(=O)N2CCC(N3CCCCC3)CC2)C(=O)NCc2cccc(C(F)(F)F)c2)[C@@H]1/C=C/c1ccccc1 | 1.9 µM | 3.77 µM
28 | C[C@]12CC[C@H]3[C@@H](C[C@@H]4N=C(c5ccc(O)cc5)S[C@@]45C[C@H](O)CC[C@]35C)[C@@H]1CC[C@@H]2O | 5.13 µM | 41.6 µM
29 | CSc1nc2c(c(=O)[nH]1)C(c1ccc(Cl)cc1)C1=C(N2)/C(=C/c2ccc(Cl)cc2)CNC1 (configuration not stated) | 1.8 µM | 4.02 µM
30 | NC[C@@](O)(c1ccc(Cl)cc1)c1ccc(-c2cn[nH]c2)cc1 | 1.08 µM and 0.54 µM | 3.79 µM and 2.01 µM
31 | CCCN1CCN(c2ccc3nc(-c4ccc5nc(-c6ccc(OCC)c(OCC)c6)[nH]c5c4)[nH]c3c2)CC1 | 0.369 µM | 1.3 µM
32 | CCc1ccc(Nc2cc(C)nc3nc(C)nn23)cc1 | 28.6 µM | > 100 µM
33 | CC[C@@]1(O)C(=O)OCc2c1cc1n(c2=O)Cc2c-1nc1ccccc1c2/C=N/OC(C)(C)C | < 0.01 µM | 0.0592 µM
34 | Cc1ccccc1/C=C1\CN(C(=O)OC(C)(C)C)C/C(=C\c2ccccc2C)C1=O | 1.83 µM | 4.45 µM
35 | O=C(O)c1cc(Sc2ccc([N+](=O)[O-])c(C(=O)O)c2)ccc1[N+](=O)[O-] | > 100 µM | > 100 µM
36 | Nc1c(C(=O)Nc2ccccc2)sc2nc3c(cc12)CCCC3 | 0.317 µM | 47.9 µM
37 | C/C(=N\NC(=O)c1ccncc1)c1ccc(O)cc1O | 4.16 µM | 50.8 µM
38 | O=C(/C=C/c1cccnc1)c1ccccc1O | 15.1 µM | 37.3 µM
39 | CC/C=C\C/C=C\C[C@H]1C/C=C2/C(=O)C=C[C@H]2C/C=C\CCC(=O)O1 | 1.86 µM | 5 µM
40 | Nc1nc2c(c3cnccc13)C(c1cccc(Cl)c1)Cc1cnccc1-2 (configuration not stated) | 0.21 µM | 0.576 µM
41 | O=S(=O)(NCCCNc1cc(-c2cn(-c3ccccc3)nc2-c2cccc(O)c2)ccn1)c1ccc(Cl)cc1 | 1.16 µM | 4.56 µM
